Our source for the MIC and melting point values is patent US8865734B2 (priority 2010, dated 2014).

The subject of data set [1] is in vitro grown Mycobacteria (M. tuberculosis). Kind of data set: QUM: Quantification of in vitro grown Mycobacteria (in vitro growth fluorescence assay). It is filed as cell-based. The settings on record: Mycobacterium tuberculosis; MIC, 80% bacterial growth inhibition; in vitro growth; read-out: QUM. The method in brief:
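Mycobacterium tuberculosis grown in vitro was quantified by fluorescence across compound dose responses. MIC is defined as the minimum concentration producing 80% growth inhibition.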

The subject of data set [2] is M. tuberculosis inside the host macrophage. Briefly: QIM: Quantification of Intracellular Mycobacteria (intracellular growth assay, phenotypic cell-based). As to conditions: Mycobacterium tuberculosis; MIC, 80% bacterial growth inhibition; intracellular growth; read-out: QIM. The method in brief:
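Dose-response testing of intracellular mycobacterial replication in infected macrophages, a cell-based screening format; MIC is defined as the lowest concentration achieving 80% inhibition of bacterial growth.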

≈ marks a conversion by molar mass, not a printed value.

Take `CCc1nc2ccc(Cl)cn2c1C(=O)NCc1ccc(C#N)cc1` [Compound 146, 6-Chloro-N-(4-cyanobenzyl)-2-ethylimidazo[1,2-a]pyridine-3-carboxamide]: the melting point lay within 223 to 224 °C. Besides, the MIC in data set [1] was above 20 µM. In addition, in data set [2], the MIC was 1 to 20 µM (≈ 0.339 to 6.78 µg/mL).

As to `CCc1nc2ccc(F)cn2c1C(=O)NCc1ccc(N2CCN(c3ccc(F)cc3)CC2)cc1` [Compound 306, 2-Ethyl-6-fluoro-N-(4-(4-(4-fluorophenyl)piperazin-1-yl)benzyl)imidazo[1,2-a]pyridine-3-carboxamide], the melting point came out at 200.9 °C. In data set [1], the MIC is below 1 µM. Besides, in data set [2], the MIC was below 1 µM.

For `CCc1nc2ccc(Cl)cn2c1C(=O)NCc1ccc(Oc2ccc(OC(F)(F)F)cc2)nc1` [Compound 194, 6-Chloro-2-ethyl-N-((6-(4-(trifluoromethoxy)phenoxy)pyridin-3-yl)methyl)imidazo[1,2-a]pyridine-3-carboxamide], the melting point fell in the range of 154 to 155 °C. Moreover, the MIC in data set [1] fell in the range of 1 to 20 µM (≈ 0.491 to 9.82 µg/mL). Also, the MIC in data set [2] was below 1 µM.

The molecule `CCc1nc2cc(Cl)ccn2c1C(=O)NCc1ccc(N2CCC(Oc3ccc(F)cc3)CC2)cc1` [Compound 167, 7-Chloro-2-ethyl-N-(4-(4-(4-fluorophenoxy)piperidin-1-yl)benzyl)imidazo[1,2-a]pyridine-3-carboxamide] yielded a melting point of 138 to 139 °C. In addition, in data set [1], the MIC was below 1 µM. Also, the MIC in data set [2] was below 1 µM.

Regarding `CCc1nc2c(F)cccn2c1C(=O)NCc1ccc(N2CCOCC2)cc1` [Compound 317, 2-Ethyl-8-fluoro-N-(4-morpholinobenzyl)imidazo[1,2-a]pyridine-3-carboxamide], the melting point was found to be 197.3 °C. Also, in data set [1], the MIC was below 1 µM. Also, the MIC in data set [2] was below 1 µM.

Consider `CCc1nc2cc(Cl)ccn2c1C(=O)NCc1ccc(N2CCN(Cc3ccc(F)cc3)CC2)cc1` [Compound 172, 7-Chloro-2-ethyl-N-(4-(4-(4-fluorobenzyl)piperazin-1-yl)benzyl)imidazo[1,2-a]pyridine-3-carboxamide], for which the melting point is 141 to 142 °C. In addition, the MIC in data set [1] is below 1 µM. Moreover, the MIC in data set [2] was below 1 µM.

The molecule `CCc1nc2cc(Cl)ccn2c1C(=O)NCc1ccc(N2CCCCC2C)cc1` (stereo not drawn) [Compound 273, 7-chloro-2-ethyl-N-(4-(2-methylpiperidin-1-yl)benzyl)imidazo[1,2-a]pyridine-3-carboxamide] had a melting point of 117.9 °C. In data set [1], the MIC was below 1 µM. In addition, in data set [2], the MIC is below 1 µM.

For `CCc1nc2ccc(Cl)cn2c1C(=O)NCc1ccc(N2CCCC2)cc1` [Compound 211, 6-Chloro-2-ethyl-N-(4-(pyrrolidin-1-yl)benzyl)imidazo[1,2-a]pyridine-3-carboxamide], the melting point was in the range of 222 to 223 °C. Besides, the MIC in data set [1] is below 1 µM. Further, the MIC in data set [2] is below 1 µM.

As to `CCc1nc2ccc(Cl)cn2c1CNc1ccc(Oc2ccc(F)cc2)cc1` [Compound 242, N-((6-Chloro-2-ethylimidazo[1,2-a]pyridin-3-yl)methyl)-4-(4-fluorophenoxy)aniline], the melting point was 148.6 to 148.8 °C. Besides, the MIC in data set [1] is above 20 µM. Also, the MIC in data set [2] is above 20 µM.

In the case of `CCc1nc2ccc(Cl)cn2c1C(=O)NCc1ccc(N2CCN(c3ccc(OC(F)(F)F)cc3)CC2)cc1` [Compound 178, 6-Chloro-2-ethyl-N-(4-(4-(4-(trifluoromethoxy)phenyl)piperazin-1-yl)benzyl)imidazo[1,2-a]pyridine-3-carboxamide], the melting point lay in the range of 206.5 to 207 °C. Also, the MIC in data set [1] is below 1 µM. The MIC in data set [2] is below 1 µM.

In turn, `CCc1nc2ccc(Cl)cn2c1C(=O)NCc1ccc(C(F)(F)F)cc1` [Compound 147, 6-Chloro-2-ethyl-N-(4-(trifluoromethyl)benzyl)imidazo[1,2-a]pyridine-3-carboxamide] yielded a melting point of 179 to 180 °C. In addition, in data set [1], the MIC is below 1 µM. In addition, in data set [2], the MIC is below 1 µM.

For `CCc1nc2ccccn2c1C(=O)NCc1ccc(N2CCC(COc3ccc(F)cc3)CC2)cc1` [Compound 295, 2-Ethyl-N-(4-(4-((4-fluorophenoxy)methyl)piperidin-1-yl)benzyl)imidazo[1,2-a]pyridine-3-carboxamide], the melting point came to 144.2 °C. Also, in data set [1], the MIC was below 1 µM. The MIC in data set [2] was below 1 µM.

In the case of `CCc1nc2ccc(Br)cn2c1C(=O)NCc1ccc(N2CCN(c3ccc(F)cc3)CC2)cc1` [Compound 307, 6-Bromo-2-ethyl-N-(4-(4-(4-fluorophenyl)piperazin-1-yl)benzyl)imidazo[1,2-a]pyridine-3-carboxamide], the melting point turned out to be 218.1 °C. The MIC in data set [1] is below 1 µM. Also, in data set [2], the MIC is below 1 µM.

As for `CCc1nc2cc(Cl)ccn2c1C(=O)NCc1ccc(C(F)(F)F)cc1` [Compound 148, 7-Chloro-2-ethyl-N-(4-(trifluoromethyl)benzyl)imidazo[1,2-a]pyridine-3-carboxamide], the melting point is 196.2 to 196.9 °C. Besides, in data set [1], the MIC was below 1 µM. Besides, the MIC in data set [2] was below 1 µM.

On to `CCc1nc2ccc(Cl)cn2c1C(=O)OCc1ccc(Oc2ccccc2)cc1` [Compound 196, 4-Phenoxybenzyl 6-chloro-2-ethylimidazo[1,2-a]pyridine-3-carboxylate], for which the melting point was in the range of 123.3 to 123.8 °C. Besides, the MIC in data set [1] was in the range of 1 to 20 µM (≈ 0.407 to 8.14 µg/mL). In addition, the MIC in data set [2] was below 1 µM.

`CCc1nc2cc(Cl)ccn2c1C(=O)NCc1ccc(N2CCC(O)CC2)cc1` [Compound 218, 7-Chloro-2-ethyl-N-(4-(4-hydroxypiperidin-1-yl)benzyl)imidazo[1,2-a]pyridine-3-carboxamide] had a melting point of 179.1 to 180 °C. Besides, the MIC in data set [1] was below 1 µM. Further, the MIC in data set [2] is above 20 µM.

Consider `CCc1nc2ccc(Cl)cn2c1C(=O)NCCc1ccc(OC)cc1` [Compound 157, 6-Chloro-2-ethyl-N-(4-methoxyphenethyl)imidazo[1,2-a]pyridine-3-carboxamide], for which the melting point lay within 129 to 130 °C. For the same molecule, in data set [1], the MIC is below 1 µM. Further, in data set [2], the MIC is below 1 µM.

For the molecule `CCc1nc2cc(Cl)ccn2c1C(=O)NCc1ccc(N2CCC(c3ccc(F)cc3)CC2)cc1` [Compound 287, 7-Chloro-2-ethyl-N-(4-(4-(4-fluorophenyl)piperidin-1-yl)benzyl)imidazo[1,2-a]pyridine-3-carboxamide], the melting point was 182.7 °C. Also, in data set [1], the MIC is below 1 µM. Further, in data set [2], the MIC was below 1 µM.

For `CCc1nc2cc(-c3ccncc3)ccn2c1C(=O)NCc1ccc(N2CCOCC2)cc1` [Compound 325, 2-Ethyl-N-(4-morpholinobenzyl)-7-(pyridin-4-yl)imidazo[1,2-a]pyridine-3-carboxamide], the melting point was 210.1 °C. Further, in data set [1], the MIC was above 20 µM. In data set [2], the MIC was above 20 µM.

For `CCc1nc2c[n+]([O-])ccn2c1C(=O)NCc1ccc(OC(F)(F)F)cc1` [Compound 156, 2-Ethyl-3-((4-(trifluoromethoxy)benzyl)carbamoyl)imidazo[1,2-a]pyrazine 7-oxide], the melting point fell in the range of 215 to 216 °C. Moreover, the MIC in data set [1] was above 20 µM. Moreover, in data set [2], the MIC is above 20 µM.

Molecule `CCc1nc2ccc(Cl)cn2c1-c1nc(Cc2ccc(OC(F)(F)F)cc2)no1` [Compound 243, 5-(6-Chloro-2-ethylimidazo[1,2-a]pyridin-3-yl)-3-(4-(trifluoromethoxy)benzyl)-1,2,4-oxadiazole] registered a melting point of 146.4 to 146.9 °C. Moreover, in data set [1], the MIC is above 20 µM. The MIC in data set [2] was above 20 µM.

For `CCc1nc2cc(Br)ccn2c1C(=O)NCc1ccc(N2CCOCC2)cc1` [Compound 324, 7-Bromo-2-ethyl-N-(4-morpholinobenzyl)imidazo[1,2-a]pyridine-3-carboxamide], the melting point was found to be 202.6 °C. For the same molecule, in data set [1], the MIC was below 1 µM. In addition, in data set [2], the MIC was below 1 µM.

On to `CCc1nc2cc(Cl)ccn2c1C(=O)NCc1ccc(N2CC(C)CC(C)C2)cc1` (stereo not drawn) [Compound 217, 7-Chloro-N-(4-(3,5-dimethylpiperidin-1-yl)benzyl)-2-ethylimidazo[1,2-a]pyridine-3-carboxamide], for which the melting point was in the range of 181.5 to 182.8 °C. Besides, the MIC in data set [1] was below 1 µM. In addition, the MIC in data set [2] was below 1 µM.

Regarding `CCc1nc2cc(Cl)ccn2c1C(=O)NCc1ccc(N2CCN(Cc3ccc(OC(F)(F)F)cc3)CC2)cc1` [Compound 174, 7-Chloro-2-ethyl-N-(4-(4-(4-(trifluoromethoxy)benzyl)piperazin-1-yl)benzyl)imidazo[1,2-a]pyridine-3-carboxamide], the melting point lay within 137.1 to 137.6 °C. The MIC in data set [1] was below 1 µM. Moreover, in data set [2], the MIC is below 1 µM.

Take `CCc1nc2cc(Cl)ccn2c1C(=O)NCc1ccc(NCc2ccc(OC(F)(F)F)cc2)cc1` [Compound 262]: the melting point was 169.6 °C. Further, the MIC in data set [1] is below 1 µM. In data set [2], the MIC is below 1 µM.

With `CCc1nc2cc(Cl)ccn2c1C(=O)NCc1ccc(N2C=CC(=O)CC2)cc1` [Compound 270, 7-Chloro-2-ethyl-N-(4-(4-oxo-3,4-dihydropyridin-1(2H)-yl)benzyl)imidazo[1,2-a]pyridine-3-carboxamide], the melting point lay within 201.3 to 202.8 °C. Further, in data set [1], the MIC was above 20 µM. Moreover, the MIC in data set [2] was above 20 µM.

Regarding `CCc1nc2ccc(Cl)cn2c1C(=O)NCc1ccc(N2CCC3CCCCC3C2)cc1` (stereo not drawn) [Compound 267, 6-Chloro-2-ethyl-N-(4-(octahydroisoquinolin-2(1H)-yl)benzyl)imidazo[1,2-a]pyridine-3-carboxamide], the melting point stood at 141.7 °C. Further, the MIC in data set [1] is below 1 µM. Moreover, the MIC in data set [2] was below 1 µM.

Usually melting point stands for the temperature of the solid-liquid transition.
